Test results reported in patent US20100063006A1, “COMPOSITIONS AND METHODS TO REDUCE FAT AND RETRACT SKIN” (American Network of Lipolysis, LLC, priority 2006, published 2010).
Counter-ions that a name gives are not always drawn.

Assays:
[1] = tested on: cultured human adipocytes; assay: In vitro lipolysis assays (basal lipolysis rate, triglyceride detection) in cultured human adipocytes; type: cell-based; conditions: adipocytes incubated 12-14 hours in test composition; FIG. 8
Procedure: Lipolysis induced in cultured human adipocytes by certain embodiments of the inventive injectable compositions for fat reduction and their constituent components was assayed in vitro under controlled conditions.
Cells utilized for the in vitro assays were obtained from five different dermolipectomy specimens. Preadipocytes were cultured in differentiation media over 14 days to produce adipocytes incubated between 12-14 hours in each of 12 test solutions. Each of the cell lines incubated in each of the 12 test solutions were split and introduced into four in vitro assays.
Cell lines were incubated in each of the following compositions: • 1. Phosphatidylcholine 25.6 milligrams per milliliter (mg/mL)/Deoxycholate 24.8 mg/mL, Benzyl Alcohol 25.6 mg/mL, ISUPREL 8 mg/mL, and Ropivacaine 5 mg/mL. • 2. Phosphatidylcholine 24.0 mg/mL/Deoxycholate 19.8 mg/mL, Benzyl Alcohol 25.6 mg/mL, ISUPREL 8 mg/mL, and Ropivacaine 5 mg/mL. • 3. Phosphatidylcholine 50.0 mg/mL/Deoxycholate 42.0 mg/mL. • 4. Deoxycholate 10.0 mg/mL. • 5. Phosphatidylcholine 45.0 mg/mL/Deoxycholate 42.0 mg/mL. • 6. Phosphatidylcholine 53.0 mg/mL/Deoxycholate 42.0 mg/mL. • 7. Phosphatidylcholine 50 mg/mL in mineral oil. • 8. Deoxycholate 24.8 mg/mL. • 9. Benzyl alcohol 25.6 mg/mL. • 10. ISUPREL 8.0 mg/mL. • 11. Ropivacaine 5.0 mg/mL. • 12. Vitamin B complex and pentoxyffline • 13. Control--Saline Solution. […]
B. Basal Lipolysis Rate. Free lipid in collected supernatant was quantified using a Lipolyis assay available from Zan-Bio, Catalog No. LIP-1 to measure released glycerol. […] The quinoneimine dye has an absorbance maximum at 540 nanometers. The increase in absorbance at 540 nanometers is directly proportionate to glycerol concentration in the supernatant.
D. Triglyceride Detection. The amount of triglyceride was quantified by measurement of glycerol released by cell lysis into the supernatant utilizing a triglyceride assay kit available from Zen-Bio, Catalog No. TG-1-NC. There is a molar equivalent of triglyceride for each mole of glycerol detected.

[2] = nausea, vomiting, diarrhea, flushing, sweating, bradycardia; cited from earlier work

Compound | lipolytic action (free lipids) compared with the saline control [1] | total administered amount of PC above which cholinergic side effects occur [2]
CCCN1CCCC[C@H]1C(=O)Nc1c(C)cccc1C [Test composition no. 11, Ropivacaine] | do not appear to have lipolytic action greater than the control | 
CC(C)NCC(O)c1ccc(O)c(O)c1 (stereo not shown) [Test composition no. 10, isoproterenol hydrochloride] | do not appear to have lipolytic action greater than the control | 
OCc1ccccc1 [Test composition no. 9, Benzyl alcohol] | do not appear to have lipolytic action greater than the control | 
phosphatidylcholine [PC] |  | exceeds 2000 mg per treatment
